Measured values taken from patent US7686852B2, “Monoazo dyes” (Clariant Finance (BVI) Limited, priority 2004, dated 2010).

Columns and labels:
[1] = Comparative Test Series 3: stability of dye solution after cooling to 25° C. and 48 hours, filtration test; assay type: physicochemical; set-up: key to Aspect of the solution after the 48 hours: 1): after cooling down turned immediately cloudy; 2): remained clear after cooling down; key to Grade of the visual inspection of the upper filter: a grade of 5 signifies no residue; 4 signifies little, fine residues; 3 signifies bigger residues; 2 signifies coarse residues; 1 signifies a compact layer of precipitated dyestuff; conditions: for Aspect of the solution after the 48 hours: dissolved at 90° C., kept at 25° C. for 48 hour; for time for passing of the 200 ml of dye solution trough the 2 filter layers / Grade of the visual inspection of the upper filter: after 48 hour at 25° C.; for Grade of the visual inspection of the upper filter: filtered through 2 paper filters
Experimental: In 160 ml of water a certain amount of dyestuff was dissolved at 90° C. and the resulting solution was diluted to 200 ml by adding water of 90° C. This solution was put in a water bath kept at 25° C. and after the dye solution was at 25° the dye solution was let for 48 hour without stirring or shaking at 25° C.
The solution was visually inspected first and the filtrated trough 2 layers of paper filters of 70 mm diameter (Typ 1450 CV obtainable from Schleicher & Schuell MicroScience GmbH
Hahnestrasse 3; D-37586 Dassel). The time for passing of the 200 ml of dye solution was measured and the upper filter was inspected visually. Grades are given and a grade of 5 signifies no residue, 4 signifies little, fine residues, 3 signifies bigger residues, 2 signifies coarse residues and 1 signifies a compact layer of precipitated dyestuff.

[2] = hot water, then cooling; cited from earlier work
[3] = Solubility in water / stability of stock solutions; assay type: physicochemical; conditions: room temperature

Aspect of the solution after the 48 hours ([1]; 6 g/Liter in water) | time for passing of the 200 ml of dye solution trough the 2 filter layers ([1]; 6 g/Liter) [s] | Grade of the visual inspection of the upper filter ([1]; 6 g/Liter) | Aspect of the solution after the 48 hours ([1]; 12 g/Liter in water) | time for passing of the 200 ml of dye solution trough the 2 filter layers ([1]; 12 g/Liter) [s] | Grade of the visual inspection of the upper filter ([1]; 12 g/Liter) | Aspect of the solution after the 48 hours ([1]; 20 g/Liter in water) | time for passing of the 200 ml of dye solution trough the 2 filter layers ([1]; 20 g/Liter) [s] | Grade of the visual inspection of the upper filter ([1]; 20 g/Liter) | Aspect of the solution after the 48 hours ([1]; 30 g/Liter in water) | time for passing of the 200 ml of dye solution trough the 2 filter layers ([1]; 30 g/Liter) [s] | Grade of the visual inspection of the upper filter ([1]; 30 g/Liter) | SMILES | solubility in water [2] | stability of stock solutions [3]
1) | 16 | 4 | 1) | 27 | 3 | 1) | 33 | 2 to 3 | 1) | 95 | 1 to 2 | Cc1ccc(S(=O)(=O)Oc2ccc(/N=N/c3ccc(Nc4ccc(S(=O)(=O)O)cc4[N+](=O)[O-])cc3)c(C)c2)cc1 | soluble in hot water, but partly reprecipitates on cooling | 
2) | 6 | 4 | 2) | 7 | 3 to 4 | 2) | 7 | 3 | 2) | 8 | 2 to 3 | Cc1cc(OS(=O)(=O)c2ccc(C(C)(C)C)cc2)ccc1/N=N/c1ccc(Nc2ccc(S(=O)(=O)O)cc2[N+](=O)[O-])cc1 [Example 1] |  | remain clear for several weeks even at room temperature
